This is an account of results in patent US11220671B2, “Methods for the maturation of cardiomyocytes on amniotic fluid cell-derived ECM, cellular constructs, and uses for cardiotoxicity and proarrhythmic screening of drug compounds” (STEMBIOSYS, INC., priority 2019, dated 2022).

The subject of data set [1] is mature cardiomyocytes (hiPSC-CMs) on AFC-ECM. How it is done:
The cardiotoxicity and/or proarrhythmia testing can be conducted using any type of equipment suitable for measuring such activity. In some embodiments, the cellular constructs of monolayers of mature cardiomyocytes on AFC-ECM are prepared as described supra. After the maturation process (generally 7 days or less), the electrophysiology of each well is observed using a plate reader. A suitable voltage sensitive or calcium sensitive fluorescent dye is loaded into each well. Non-limiting voltage sensitive dyes include FluoVolt™ dye commercially available from ThermoFisher. In some embodiments, the plate reader can rely on a suitable high spatiotemporal CCD camera combined with suitable lighting, such as light emitting diodes (LEDs), of the appropriate wavelength to excite each dye. Such high spatiotemporal CCD cameras are commercially available from SciMeasure. In some embodiments, the camera image acquisition rate is greater than or equal to 150 frames per second. In some embodiments, the camera and lens combination are designed such that it allows visualization of all the wells of the multi-well plate simultaneously with sufficient resolution to observe action potential and calcium wave propagation. Each plate is centered under the camera system, lighting is switched on and camera acquisition is initiated and electrophysiological activity is recorded. Experiments are performed at about 37° C. After baseline readings are made, the drug to be tested is added to the wells and the effects are recorded. Spontaneous activity is recorded for a sufficient period of time to obtain images, e.g. at least 10 seconds. The images can be stored on a computer. Images are analyzed and action potential duration, conduction velocity, beat rate and activation patterns can be quantified using image analysis software. Visualization of electrical wave patterns is important to determine a drug compound's effect to cause potentially fatal arrhythmias, e.g., Torsades de Pointes (TdP). Thus, in addition to providing information on a compound's effect on spontaneous action potential duration, the methods disclosed herein can also provide information on impulse conduction velocity and activation pattern depending on the type of equipment used.
After the 7-day maturation process the electrophysiology of each well was observed using a plate reader using the following high throughput screen method. FluoVolt™ dye in Hanks Balanced Salt Solution was loaded into each well. A high spatiotemporal CCD camera (SciMeasure DaVinci camera) combined with light emitting diodes (LEDs) as shown in the schematic in FIG. 22. The camera and lens combination were designed such that it allowed visualization of all the wells of the 96-well plate simultaneously with sufficient resolution to observe action potential and calcium wave propagation. Each plate was centered under the camera system, lighting was switched on and camera acquisition was initiated and electrophysiological activity was recorded. Experiments were performed at about 37° C. Spontaneous activity was recorded for at least 10 seconds and images were stored on a computer. […] Images were analyzed and action potential duration, conduction velocity, beat rate and activation patterns were quantified using image analysis software.
The drugs were selected from the CiPA Initiative's list of compounds for validation and testing of CiPA and are classified as high risk, intermediate risk or low risk for causing fatal arrhythmias (TdPs) in patients.

The conditions of data set [2]: CiPA list: high, intermediate or low risk for causing fatal arrhythmias (TdPs) in patients; cited from earlier work.
The mark [3] stands for this setting: mature cardiomyocytes on AFC-ECM, 96-well plates, plate reader, any arrhythmia detected over Dose 1-4.
[4] abbreviates: mature cardiomyocytes on AFC-ECM, 96-well plates, at 10 times the effective therapeutic plasma concentration.

Where two headings read alike, the source gives them in different places.

Consider `CN1CCN(C2=Nc3cc(Cl)ccc3Nc3ccccc32)CC1` [Clozapine], for which, in data set [1], the “APD90 Prolongation? @10X ETPC” value is recorded as “Yes” and the “Arrhythmia Detected?” value was “No”.
With `CC(C)N(CCC(C(N)=O)(c1ccccc1)c1ccccn1)C(C)C` (stereo not drawn) [Disopyramide], in data set [1], the “APD90 Prolongation? @10X ETPC” value is listed as “Yes” and the “Arrhythmia Detected?” value is “Yes, EAD, TA”.
With `CCCCCCCN(CC)CCCC(O)c1ccc(NS(C)(=O)=O)cc1` (stereo not drawn) [Ibutilide], in data set [1], the “APD90 Prolongation? @10X ETPC” value is “YeS” and the “Arrhythmia Detected?” value was “Yes, EAD”. Further, the “Risk Category” value in data set [2] was “High”.
For `COc1ccc(CCN2CCC(Nc3nc4ccccc4n3Cc3ccc(F)cc3)CC2)cc1` [Astemizole], in data set [1], the “APD90 Prolongation? @10X ETPC” value is listed as “Yes” and the “Arrhythmia Detected?” value is given as “Yes”.
As to `CCOC(=O)N1CCC(=C2c3ccc(Cl)cc3CCc3cccnc32)CC1` [Loratadine], in data set [1] (setting [3]), the “Arrhythmia Detected?” value was “No”. Moreover, the “APD90 Prolongation? @10X ETPC” value in data set [1] (setting [4]) was “No”.
Consider `CC(C)(C)c1ccc(C(O)CCCN2CCC(C(O)(c3ccccc3)c3ccccc3)CC2)cc1` (stereo not drawn) [Terfenadine], for which, in data set [1], the “APD90 Prolongation? @10X ETPC” value is “Yes” and the “Arrhythmia Detected?” value is listed as “No”.
For the compound `Cc1cccc(C)c1OCC(C)N` (stereo not drawn) [Mexiletine], in data set [1], the “APD90 Prolongation? @10X ETPC” value was “No” and the “Arrhythmia Detected?” value is listed as “No”.
`O=C(CCCN1CC=C(n2c(=O)[nH]c3ccccc32)CC1)c1ccc(F)cc1` [Droperidol]: in data set [1], the “APD90 Prolongation? @10X ETPC” value is reported as “Yes” and the “Arrhythmia Detected?” value was “Yes, EAD”.
Take `O=c1[nH]c2ccccc2n1CCCN1CCC(n2c(=O)[nH]c3cc(Cl)ccc32)CC1` [Domperidone]: in data set [1], the “APD90 Prolongation? @10X ETPC” value is reported as “Yes” and the “Arrhythmia Detected?” value is recorded as “Yes, TA”.
For the compound `O=c1[nH]c2ccccc2n1C1CCN(CCCC(c2ccc(F)cc2)c2ccc(F)cc2)CC1` [Pimozide], in data set [1], the “APD90 Prolongation? @10X ETPC” value was “No” and the “Arrhythmia Detected?” value is reported as “Yes”.
In the case of `COCCc1ccc(OCC(O)CNC(C)C)cc1` (stereo not drawn) [Metoprolol], in data set [1], the “APD90 Prolongation? @10X ETPC” value was “No” and the “Arrhythmia Detected?” value is given as “Yes,”.
With `COc1ccc(CCN(C)CCCC(C#N)(c2ccc(OC)c(OC)c2)C(C)C)cc1OC` (stereo not drawn) [Verapamil], in data set [1], the “APD90 Prolongation? @10X ETPC” value is recorded as “No, Shortening” and the “Arrhythmia Detected?” value is listed as “No”.
Turning to `COc1ccccc1OCC(O)CN1CCN(CC(=O)Nc2c(C)cccc2C)CC1` (stereo not drawn) [Ranolazine], in data set [1], the “APD90 Prolongation? @10X ETPC” value is reported as “No” and the “Arrhythmia Detected?” value is reported as “No”. In data set [2], the “Risk Category” value is recorded as “Low”.
Turning to `COc1ccc([C@@H]2Sc3ccccc3N(CCN(C)C)C(=O)[C@@H]2OC(C)=O)cc1` [Diltiazem], in data set [1], the “APD90 Prolongation? @10X ETPC” value is reported as “No, shortening” and the “Arrhythmia Detected?” value is recorded as “No”.
In the case of `C=C[C@H]1C[N@@]2CC[C@H]1C[C@@H]2[C@@H](O)c1ccnc2ccc(OC)cc12` [Quinidine], the “APD90 Prolongation? @10X ETPC” value in data set [1] is recorded as “Yes”. Also, the “Arrhythmia Detected?” value in data set [1] (setting [3]) is on record as “Yes, EAD”.
For `COc1cc(N)c(Cl)cc1C(=O)NC1CCN(CCCOc2ccc(F)cc2)CC1OC` (stereo not drawn) [Cisapride], in data set [1], the “APD90 Prolongation? @10X ETPC” value is “No” and the “Arrhythmia Detected?” value is given as “Yes”. In data set [2], the “Risk Category” value is “Intermediate”.
As to `Cc1nc2n(c(=O)c1CCN1CCC(c3noc4cc(F)ccc34)CC1)CCCC2` [Risperidone], the “Arrhythmia Detected?” value in data set [1] is reported as “No”.
On to `CN1CCN(CCCCN2C(=O)CN(/N=C/c3ccc(-c4ccc(Cl)cc4)o3)C2=O)CC1` [Azimilide], for which, in data set [1], the “APD90 Prolongation? @10X ETPC” value is “Yes” and the “Arrhythmia Detected?” value is on record as “Yes, EAD”. Also, the “Risk Category” value in data set [2] is “High”.
On to `Cc1nccn1CC1CCc2c(c3ccccc3n2C)C1=O` (stereo not drawn) [Ondansetron], for which, in data set [1], the “APD90 Prolongation? @10X ETPC” value is on record as “Yes” and the “Arrhythmia Detected?” value is “Yes, EAD”. In addition, the “Risk Category” value in data set [2] is given as “Intermediate”.
As for `CC(C)COCC(CN(Cc1ccccc1)c1ccccc1)N1CCCC1` (stereo not drawn) [Bepridil], in data set [1], the “APD90 Prolongation? @10X ETPC” value is on record as “Yes” and the “Arrhythmia Detected?” value is given as “Yes, Q”. The “Risk Category” value in data set [2] is “High”.
`CN(CCOc1ccc(NS(C)(=O)=O)cc1)CCc1ccc(NS(C)(=O)=O)cc1` [Dofetilide]: in data set [1], the “APD90 Prolongation? @10X ETPC” value was “Yes” and the “Arrhythmia Detected?” value is recorded as “Yes, EAD”.
As for `COc1cc2c(Nc3ccc(Br)cc3F)ncnc2cc1OCC1CCN(C)CC1` [Vandetanib], in data set [1], the “APD90 Prolongation? @10X ETPC” value is recorded as “Yes” and the “Arrhythmia Detected?” value is “Yes, EAD”. Also, the “Risk Category” value in data set [2] is on record as “High”.
`CC/C(=C(\c1ccccc1)c1ccc(OCCN(C)C)cc1)c1ccccc1` [Tamoxifen]: in data set [1], the “APD90 Prolongation? @10X ETPC” value was “No” and the “Arrhythmia Detected?” value is listed as “No”.
For `CCOC(=O)C1=C(C)NC(C)=C(C(=O)OC)C1c1cccc([N+](=O)[O-])c1` (stereo not drawn) [Nitrendipine], in data set [1], the “APD90 Prolongation? @10X ETPC” value is “No,” and the “Arrhythmia Detected?” value was “No”.
On to `CC(C)NCC(O)c1ccc(NS(C)(=O)=O)cc1` (stereo not drawn) [D, I Sotalol], for which the “Arrhythmia Detected?” value in data set [1] (setting [3]) was “Yes, EAD”. Moreover, the “APD90 Prolongation? @10X ETPC” value in data set [1] (setting [4]) was “Yes”. Moreover, the “Risk Category” value in data set [2] is on record as “High”.
